Assay results from article PMC10504751, “Chalcone/1,3,4-Oxadiazole/Benzimidazole hybrids as novel anti-proliferative agents inducing apoptosis and inhibiting EGFR & BRAFV^600E” (BMC Chemistry, 2023).
Read-outs that look alike come from different tables or passages of the source.

What was measured:
MOLT-4 = experiment: NCI one-dose SRB anti-proliferative screen; type: cell-based, human; conditions: Homo sapiens, read-out: Cell growth inhibition %
Experimental: (§1) The twenty-four synthesized compounds were submitted to the National Cancer Institute (NCI), USA. Eighteen hybrids 7a-h, 7k-r, 7u, and 7v were selected by NCI for one-dose assessment of their anti-proliferative activities at 10 µM dose by Sulforhodamine B colorimetric assay. The assessment was performed in 60 cell lines derived from nine tumor subpanels, comprising lung, leukemia, melanoma, colon, renal, CNS, prostate, breast, and ovarian cancer cell lines.
(§2) The methodology of the NCI anti-proliferative screening has been described in details elsewhere (http://www.dtp.nci.nih.gov).

RXF 393 = experiment: NCI one-dose SRB anti-proliferative screen; type: cell-based, human; conditions: Homo sapiens, read-out: Cell growth inhibition %
Experimental: as §1, §2

HCT-116 = experiment: NCI one-dose SRB anti-proliferative screen; type: cell-based, human; conditions: for inhibition at 10 µM: Homo sapiens, read-out: Cell growth inhibition %
Experimental: as §1, §2

K-562 = experiment: NCI one-dose SRB anti-proliferative screen; type: cell-based, human; conditions: Homo sapiens, K562, read-out: Cell growth inhibition %
Experimental: as §1, §2

T-47D = experiment: NCI one-dose SRB anti-proliferative screen; type: cell-based, human; conditions: for inhibition at 10 µM: Homo sapiens, T47D, read-out: Cell growth inhibition %
Experimental: as §1, §2

[1] = MTT cell viability assay in normal cells; type: cell-based; conditions: human, MCF-10A normal mammary epithelial cells
Experimental: To check the safety of prepared compounds and evaluate their selectivity towards tumor cells over normal ones, the toxicity of compounds 7a-x were evaluated by 3-(4,5-Dimethylthiazole-2-yl)-2,5-diphenyltetrazol (MTT) assay on the normal human mammary epithelial cell line (MCF-10 A). The human mammary epithelial cell lines were incubated for four days with a concentration of 50 µM of compounds 7a-x.
MTT assay was done to determine the effect of the synthesized compounds on the viability of mammary epithelial cells (MCF-10 A). Compounds 7a-x were incubated with MCF-10 A cells for 4 days at 50 µM concentration, and the viability of cells was determined. See Appendix A.
MTT assay was carried out to study the effect of compounds on mammary epithelial cells (MCF-10A).^7, ^8 The medium in which cells were propagated contained Dulbecco's modified Eagle's medium (DMEM)/ Ham's F-12 medium (1:1) supplemented with epidermal growth factor (20 ng/mL), hydrocortisone (500 ng/mL), insulin (10 μg/mL), 2 mM glutamine and 10% foetal calf serum. After every 2-3 days, the cells were passaged using trypsin ethylenediamine tetra acetic acid (EDTA). The cells were seeded at a density of 10^4 cells mL^-1 in flat-bottomed culture plates containing 96 wells each. After 24 h, medium was removed from the plates and the compounds in (in 0.1% DMSO) were added (in 200 μL medium to yield a final concentration of 0.1% v/v) to the wells of plates. A single compound was designated with four wells followed by incubation of plates for 96h at 37°C. After incubation, medium was removed completely from the plates followed by addition of MTT (0.4 mg/mL in medium) to each well and subsequent incubation of plates for 3h. MTT (along with the medium) was removed and DMSO (150μL) was added to each well of the culture plates, followed by vortexing and subsequent measurement of absorbance (at 540 nm) using microplate reader.

BT-549 = experiment: NCI one-dose SRB anti-proliferative screen; type: cell-based; conditions: Homo sapiens, read-out: Cell growth inhibition %
Procedure, shortened: (§3)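 Single 10 µM dose tested by NCI in its 60-cell-line panel covering nine tumour subpanels. Anti-proliferative activity was read by Sulforhodamine B colorimetric staining.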

SNB-75 = experiment: NCI one-dose SRB anti-proliferative screen; type: cell-based; conditions: Homo sapiens, read-out: Cell growth inhibition %
Procedure, shortened: as §3

NCI-H522 = experiment: NCI one-dose SRB anti-proliferative screen; type: cell-based; conditions: Homo sapiens, read-out: Cell growth inhibition %
Procedure, shortened: as §3

UO-31 = experiment: NCI one-dose SRB anti-proliferative screen; type: cell-based; conditions: Homo sapiens, read-out: Cell growth inhibition %
Procedure, shortened: as §3

SF-268 = experiment: NCI one-dose SRB anti-proliferative screen; type: cell-based; conditions: Homo sapiens, read-out: Cell growth inhibition %
Procedure, shortened: as §3

CCRF-CEM = experiment: NCI one-dose SRB anti-proliferative screen; type: cell-based; conditions: Homo sapiens, read-out: Cell growth inhibition %
Procedure, shortened: as §3

NCI/ADR-RES = experiment: NCI one-dose SRB anti-proliferative screen; type: cell-based; conditions: Homo sapiens, read-out: Cell growth inhibition %
Procedure, shortened: as §3

[2] = RXF 393, Renal cancer, NCI one dose
[3] = HCT-116, Colon cancer, NCI one dose
[4] = T-47D, Breast cancer, NCI one dose
[5] = BT-549, Breast cancer, NCI one dose
[6] = SNB-75, CNS Cancer, NCI one dose
[7] = NCI-H522, Non-Small Cell Lung Cancer, NCI one dose
[8] = UO-31, Renal cancer, NCI one dose
[9] = SF-268, CNS Cancer, NCI one dose
[10] = CCRF-CEM, Leukemia, NCI one dose
[11] = NCI/ADR-RES, Ovarian Cancer, NCI one dose
[12] = MOLT-4 (Leukemia), NCI one dose 10 µM
[13] = RXF 393 (Renal Cancer), NCI one dose 10 µM
[14] = HCT-116 (Colon Cancer), NCI one dose 10 µM
[15] = K-562 (Leukemia), NCI one dose 10 µM
[16] = T-47D (Breast Cancer), NCI one dose 10 µM
[17] = BT-549 (Breast Cancer), NCI one dose 10 µM
[18] = SNB-75 (CNS Cancer), NCI one dose 10 µM
[19] = NCI-H522 (Non-Small Cell Lung Cancer), NCI one dose 10 µM
[20] = UO-31 (Renal Cancer), NCI one dose 10 µM
[21] = SF-268 (CNS Cancer), NCI one dose 10 µM
[22] = CCRF-CEM (Leukemia), NCI one dose 10 µM
[23] = NCI/ADR-RES (Ovarian Cancer), NCI one dose 10 µM

Row | SMILES | inhibition at 10 µM (MOLT-4; MOLT-4, Leukemia, NCI one dose) [%] | inhibition at 10 µM (RXF 393; [2]) [%] | inhibition at 10 µM (HCT-116; [3]) [%] | inhibition at 10 µM (K-562; K-562, Leukemia, NCI one dose) [%] | inhibition at 10 µM (T-47D; [4]) [%] | melting point [°C] | viability at 96 h, 50 µM [1] [%] | inhibition at 10 µM (BT-549; [5]) [%] | inhibition at 10 µM (SNB-75; [6]) [%] | inhibition at 10 µM (NCI-H522; [7]) [%] | inhibition at 10 µM (UO-31; [8]) [%] | inhibition at 10 µM (SF-268; [9]) [%] | inhibition at 10 µM (CCRF-CEM; [10]) [%] | inhibition at 10 µM (NCI/ADR-RES; [11]) [%] | other results
1 | O=C(CSc1nnc(-c2ccc3[nH]c(-c4ccccc4)nc3c2)o1)Nc1ccc(C(=O)/C=C/c2ccccc2)cc1 [Compound 7a, 2-{5-[2-Phenyl-1 H-benzo[d]imidazol-5-yl]-1,3,4-oxadiazol-2-ylthio}-N-{4-[(E)-3-phenylacryloyl]phenyl}acetamide] | 6.84 | 0 | 3.03 | 0 | 1.45 | 273 to 275 | 91 | 3.16 | 0 | 6.57 | 12.6 | 0 | 0 | 0 | –
2 | O=C(CSc1nnc(-c2ccc3[nH]c(-c4ccccc4)nc3c2)o1)Nc1ccc(C(=O)/C=C/c2ccc(Cl)cc2)cc1 [Compound 7b, 2-{5-[2-Phenyl-1 H-benzo[d]imidazol-5-yl]-1,3,4-oxadiazol-2-ylthio}-N-{4-[(E)-3-(4-chlorophenyl)acryloyl]phenyl}acetamide] | 6.55 | 0 | 8.66 | 0 | 12.3 | 263 to 264 | 88 | 1.92 | 0 | 11.6 | 25.5 | 0 | 0 | 0 | –
3 | COc1ccc(/C=C/C(=O)c2ccc(NC(=O)CSc3nnc(-c4ccc5[nH]c(-c6ccccc6)nc5c4)o3)cc2)cc1 [Compound 7c, 2-{5-[2-Phenyl-1 H-benzo[d]imidazol-5-yl]-1,3,4-oxadiazol-2-ylthio}-N-{4-[(E)-3-(4-methoxyphenyl)acryloyl]phenyl}acetamide] | 23.9 | 8.38 | 15.1 | 3.83 | 47.6 | 175 to 177 | 87 | 18.7 | 0 | 8.81 | 8.67 | 0 | 34.5 | 0 | Growth Percent (T-47D; T-47D (Breast Cancer), 10 µM one dose): 52.35%
4 | COc1ccc(/C=C/C(=O)c2ccc(NC(=O)CSc3nnc(-c4ccc5[nH]c(-c6ccccc6)nc5c4)o3)cc2)cc1OC [Compound 7d, 2-{5-[2-Phenyl-1 H-benzo[d]imidazol-5-yl]-1,3,4-oxadiazol-2-ylthio}-N-{4-[(E)-3-(3,4-dimethoxyphenyl)acryloyl]phenyl}acetamide] | 7.24 | 0 | 6.47 | 0 | 2.51 | 156 to 158 | 89 | 10.4 | 0 | 3.75 | 11 | 0 | 9.62 | 0 | –
5 | O=C(CSc1nnc(-c2ccc3[nH]c(-c4ccc(Cl)cc4)nc3c2)o1)Nc1ccc(C(=O)/C=C/c2ccccc2)cc1 [Compound 7f, 2-{5-[2-(4-Chlorophenyl)-1 H-benzo[d]imidazol-5-yl]-1,3,4-oxadiazol-2-ylthio}-N-{4-[(E)-3-phenylacryloyl]phenyl}acetamide] | – | – | – | – | – | 161 to 163 | 87 | – | – | – | – | – | – | – | inhibition at 10 µM (MOLT-4; [12]): 9%; inhibition at 10 µM (RXF 393; [13]): 0%; inhibition at 10 µM (HCT-116; [14]): 0%; inhibition at 10 µM (K-562; [15]): 8.26%; inhibition at 10 µM (T-47D; [16]): 0%; inhibition at 10 µM (BT-549; [17]): 0%; inhibition at 10 µM (SNB-75; [18]): 1.75%; inhibition at 10 µM (NCI-H522; [19]): 0%; inhibition at 10 µM (UO-31; [20]): 12.2%; inhibition at 10 µM (SF-268; [21]): 0%; inhibition at 10 µM (CCRF-CEM; [22]): 0%; inhibition at 10 µM (NCI/ADR-RES; [23]): 0%
6 | COc1ccc(-c2nc3cc(-c4nnc(SCC(=O)Nc5ccc(C(=O)/C=C/c6cc(OC)c(OC)c(OC)c6)cc5)o4)ccc3[nH]2)cc1 [Compound 7o, 2-{5-[2-(4-Methoxyphenyl)-1 H-benzo[d]imidazol-5-yl]-1,3,4-oxadiazol-2-ylthio}-N-{4-[(E)-3-(3,4,5-trimethoxyphenyl)acryloyl]phenyl}acetamide] | 9 | 0 | 0 | 8.26 | 0 | 154 to 156 | 89 | 0 | 1.75 | 0 | 12.2 | 0 | 0 | 0 | Growth Percent (HCT-116; HCT-116 (Colon Cancer), 10 µM one dose): 50.04%
7 | COc1ccc(/C=C/C(=O)c2ccc(NC(=O)CSc3nnc(-c4ccc5[nH]c(-c6ccc(OC)c(OC)c6)nc5c4)o3)cc2)cc1 [Compound 7r, 2-{5-[2-(3,4-Dimethoxyphenyl)-1 H-benzo[d]imidazol-5-yl]-1,3,4-oxadiazol-2-ylthio}-N-{4-[(E)-3-(4-methoxyphenyl)acryloyl]phenyl}acetamide] | – | – | – | – | – | 170 to 171 | 91 | – | – | – | – | – | – | – | inhibition at 10 µM (MOLT-4; [12]): 34.5%; inhibition at 10 µM (RXF 393; [13]): 0%; inhibition at 10 µM (HCT-116; [14]): 3.79%; inhibition at 10 µM (K-562; [15]): 21.9%; inhibition at 10 µM (T-47D; [16]): 28.9%; inhibition at 10 µM (BT-549; [17]): 5.47%; inhibition at 10 µM (SNB-75; [18]): 1.88%; inhibition at 10 µM (NCI-H522; [19]): 14.3%; inhibition at 10 µM (UO-31; [20]): 12.4%; inhibition at 10 µM (SF-268; [21]): 0%; inhibition at 10 µM (CCRF-CEM; [22]): 38.6%; inhibition at 10 µM (NCI/ADR-RES; [23]): 0%
